Data: patent US10875851B2, “Factor XIIa inhibitors” (Merck Sharp & Dohme Corp., priority 2016, dated 2020)

Target: human Factor XIIa (Homo sapiens (Human), UniProt P00748)
Assay: Factor XIIa Assay
Type: biochemical
Details: purified human Factor XIIa 500 pM; substrate n-Acetyl-Lys-Pro-Arg-AFC 100 μM; pH 7.4; read-out: FXIIa IC50
Experimental: The effectiveness of a compound of the present invention as an inhibitor of Coagulation Factor XIIa can be determined using a relevant purified serine protease, and an appropriate synthetic substrate. The rate of hydrolysis of the chromogenic or fluorogenic substrate by the relevant serine protease was measured both in the absence and presence of compounds of the present invention. Assays were conducted at room temperature or at 37° C. […] A decrease in the rate of fluorescence change in the presence of inhibitor is indicative of enzyme inhibition. Such methods are known to one skilled in the art.
Factor XIIa activity determinations were made in 50 mM HEPES buffer containing 150 mM NaCl, 5 mM CaCl2, and 0.1% PEG 8000 (polyethylene glycol; JT Baker or Fisher Scientific) at pH 7.4. Determinations were made using purified human Factor XIIa at a final concentration of 500 pM (Sekisui Diagnostics) and the synthetic substrate, n-Acetyl-Lys-Pro-Arg-AFC, TFA salt (Sigma #C6608) at a concentration of 100 μM.
Times required to achieve equilibration between enzyme and inhibitor were determined in control experiments. Initial velocities of product formation in the absence (Vo) or presence of inhibitor (Vi) were measured. IC50 was determined as the concentration of I yielding Vi=Vo/2.

Sequence of human Factor XIIa (P00748 373-615): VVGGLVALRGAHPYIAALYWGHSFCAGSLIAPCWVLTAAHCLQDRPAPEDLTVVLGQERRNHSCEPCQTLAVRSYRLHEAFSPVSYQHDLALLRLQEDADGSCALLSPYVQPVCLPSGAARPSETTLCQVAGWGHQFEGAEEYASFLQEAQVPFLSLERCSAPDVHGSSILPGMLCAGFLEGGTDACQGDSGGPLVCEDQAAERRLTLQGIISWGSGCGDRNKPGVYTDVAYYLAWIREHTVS

Row | SMILES | IC50 [nM]
1 | CS(=O)(=O)NCCCC[C@@H](NC1CCCC1)C(=O)N1CCN(C(=O)Oc2ccc3ccccc3c2Cl)C[C@H]1C(=O)NCc1cccs1 [Example 113, 1-chloronaphthalen-2-yl (3S)-4-[N^2-cyclopentyl-N~6~-(methylsulfonyl)-D-lysyl]-3-[(thiophen-2-ylmethyl)carbamoyl]piperazine-1-carboxylate] | 8.4
2 | O=C(NCc1cccs1)[C@@H]1CN(C(=O)Oc2cccc3cccnc23)CCN1C(=O)[C@@H](CC1CCCCC1)NC1CCCCC1 [Example 30, quinolin-8-yl (3S)-4-(N,3-dicyclohexyl-D-alanyl)-3-[(thiophen-2-ylmethyl)carbamoyl]piperazine-1-carboxylate] | 5.8
3 | CC(C)NCCCC[C@@H](NC(C)C)C(=O)N1CCN(C2=N[C@@H](C)[C@H](c3ccccc3)O2)C[C@H]1C(=O)NCc1cccc(Cl)c1 [Example 166, (2S)-1-[N^2,N^6-bis(1-methylethyl)-D-lysyl]-N-(3-chlorobenzyl)-4-[(4S,5S)-4-methyl-5-phenyl-4,5-dihydro-1,3-oxazol-2-yl]piperazine-2-carboxamide] | 6.8
4 | Cc1ccc(OC(=O)N2CCN(C(=O)[C@@H](CC3CCCCC3)NC3CCCCC3)[C@H](C(=O)NCc3cccs3)C2)c(Cl)c1C [Example 94, 2-chloro-3,4-dimethylphenyl (3S)-4-(N,3-dicyclohexyl-D-alanyl)-3-[(thiophen-2-ylmethyl)carbamoyl]piperazine-1-carboxylate] | 7.5
5 | COc1cc(CNC(=O)[C@@H]2CN(C(=O)Oc3cccc4ccccc34)CCN2C(=O)[C@@H](CC2CCCCC2)NC2CCC3(CC2)CCN(Cc2ccccc2)C3)ccc1CN (stereo partly drawn) [Example 28, naphthalen-1-yl (3S)-3-{[4-(aminomethyl)-3-methoxybenzyl]carbamoyl}-4-[N-(2-benzyl-2-azaspiro[4.5]dec-8-yl)-3-cyclohexyl-D-alanyl]piperazine-1-carboxylate] | 3.9
6 | CC(C)S(=O)(=O)N1CCC([C@@H](NC2CCCCC2)C(=O)N2CCN(C(=O)Oc3ccccc3Cl)C[C@H]2C(=O)NCc2cccs2)CC1 [Example 63, 2-chlorophenyl (3S)-4-[(2R)-2-(cyclohexylamino)-2-{1-[(1-methylethyl)sulfonyl]piperidin-4-yl}acetyl]-3-[(thiophen-2-ylmethyl)carbamoyl]piperazine-1-carboxylate] | 2.6
7 | CC1(C)N=C(N2CCN(C(=O)[C@H](N)CCCCN3CCCCC3)[C@H](C(=O)NCc3cc(Cl)ccc3-n3cnnn3)C2)OC1c1ccccc1 (stereo partly drawn) [Example 157, (2S)-N-[5-chloro-2-(1H-tetrazol-1-yl)benzyl]-4-(4,4-dimethyl-5-phenyl-4,5-dihydro-1,3-oxazol-2-yl)-1-(6-piperidin-1-yl-D-norleucyl)piperazine-2-carboxamide] | 54.8
8 | CC(C)N[C@H](CCCCN1CCCCC1)C(=O)N1CCN(C2=N[C@@H](C)[C@H](c3ccccc3)O2)C[C@H]1C(=O)NCc1ccc(CN)cc1 [Example 180, (2S)-N-[4-(aminomethyl)benzyl]-1-[N-(1-methylethyl)-6-piperidin-1-yl-D-norleucyl]-4-[(4S,5S)-4-methyl-5-phenyl-4,5-dihydro-1,3-oxazol-2-yl]piperazine-2-carboxamide] | 47.1
9 | CS(=O)(=O)NCCCC[C@@H](NC1CCC2(CC1)CCN(Cc1ccccc1)C2)C(=O)N1CCN(C(=O)Oc2ccccc2Cl)C[C@H]1C(=O)NCc1cccs1 (stereo partly drawn) [Example 54, 2-chlorophenyl (3S)-4-[N^2-(2-benzyl-2-azaspiro[4.5]dec-8-yl)-N~6~- (methylsulfonyl)-D-lysyl]-3-[(thiophen-2-ylmethyl)carbamoyl]piperazine-1-carboxylate] | 8.1
10 | C[C@@H]1N=C(N2CCN(C(=O)[C@@H](CCCCN)NC3CCC4(CC3)CCN(Cc3ccccc3)C4)[C@H](C(=O)NCc3cccs3)C2)O[C@H]1c1ccccc1 (stereo partly drawn) [Example 129, (2S)-1-[N^2-(2-benzyl-2-azaspiro[4.5]dec-8-yl)-D-lysyl]-4-[(4S,5S)-4-methyl-5-phenyl-4,5-dihydro-1,3-oxazol-2-yl]-N-(thiophen-2-ylmethyl)piperazine-2-carboxamide] | 13
11 | Cc1ccc(OC(=O)N2CCN(C(=O)[C@H](N)CCCCN(C)C)[C@H](C(=O)NCc3cccs3)C2)c(Cl)c1C [Example 98, 2-chloro-3,4-dimethylphenyl (3S)-4-(N^6,N^6-dimethyl-D-lysyl)-3-[(thiophen-2-ylmethyl)carbamoyl]piperazine-1-carboxylate] | 7.2
12 | CN(C)CCCC[C@H](C(=O)N1CCN(C2=NC(C)(C)C(c3ccccc3)O2)C[C@H]1C(=O)NCc1cc2cnccc2s1)N(C)C (stereo partly drawn) [Example 147, (2S)-4-(4,4-dimethyl-5-phenyl-4,5-dihydro-1,3-oxazol-2-yl)-1-(N^2,N^2,N^6,N^6-tetramethyl-D-lysyl)-N-(thieno[3,2-c]pyridin-2-ylmethyl)piperazine-2-carboxamide] | 44.1
13 | COc1cc(CNC(=O)[C@@H]2CN(C(=O)Oc3ccc4ccccc4c3Cl)CCN2C(=O)[C@@H](CCCCN(C)C)N(C)C2CCC3(CC2)CCN(Cc2ccccc2)C3)ccc1CN (stereo partly drawn) [Example 87, 1-chloronaphthalen-2-yl (3S)-3-{[4-(aminomethyl)-3-methoxybenzyl]carbamoyl}-4-[N^2-(2-benzyl-2-azaspiro[4.5]dec-8-yl)-N^2,N^6,N^6-trimethyl-D-lysyl]piperazine-1-carboxylate] | 1
14 | CN(C)CCCC[C@@H](NC1CCC2(CC1)CCN(Cc1ccccc1)C2)C(=O)N1CCN(C2=NC(C)(C)CO2)C[C@H]1C(=O)NCc1cccs1 (stereo partly drawn) [Example 141, (2S)-1-[N^2-(2-benzyl-2-azaspiro[4.5]dec-8-yl)-N^6,N^6-dimethyl-D-lysyl]-4-(4,4-dimethyl-4,5-dihydro-1,3-oxazol-2-yl)-N-(thiophen-2-ylmethyl)piperazine-2-carboxamide] | 9.2
15 | C[C@@H]1N=C(N2CCN(C(=O)[C@@H](CCCCN(C)C)NC3CCC(CN)CC3)[C@H](C(=O)NCc3cccs3)C2)O[C@H]1c1ccccc1 (stereo partly drawn) [Example 133, (2S)-1-{N^2-[4-(aminomethyl)cyclohexyl]-N^6,N^6-dimethyl-D-lysyl}-4-[(4S,5S)-4-methyl-5-phenyl-4,5-dihydro-1,3-oxazol-2-yl]-N-(thiophen-2-ylmethyl)piperazine-2-carboxamide] | 6.6
16 | CCS(=O)(=O)N1CCC([C@@H](NC2CCCCC2)C(=O)N2CCN(C(=O)Oc3ccccc3Cl)C[C@H]2C(=O)NCc2cccs2)CC1 [Example 61, 2-chlorophenyl (3S)-4-{(2R)-2-(cyclohexylamino)-2-[1-(ethylsulfonyl)piperidin-4-yl]acetyl}-3-[(thiophen-2-ylmethyl)carbamoyl]piperazine-1-carboxylate] | 4.2
17 | COc1cc(CNC(=O)[C@@H]2CN(C(=O)Oc3ccc4ccccc4c3Cl)CCN2C(=O)[C@H](N)CCCCN(C)C)ccc1CN [Example 89, 1-chloronaphthalen-2-yl (3S)-3-{[4-(aminomethyl)-3-methoxybenzyl]carbamoyl}-4-(N^6,N^6-dimethyl-D-lysyl)piperazine-1-carboxylate] | 1.7
18 | O=C(NCc1cccs1)[C@@H]1CN(C(=O)Oc2ccccc2Cl)CCN1C(=O)[C@@H](CCCCN1CCOCC1)NC1CCC2(CC1)CCN(Cc1ccccc1)C2 (stereo partly drawn) [Example 95, 2-chlorophenyl (3S)-4-[N-(2-benzyl-2-azaspiro[4.5]dec-8-yl)-6-morpholin-4-yl-D-norleucyl]-3-[(thiophen-2-ylmethyl)carbamoyl]piperazine-1-carboxylate] | 1.8
19 | CC(C)N[C@H](CCCCN1CCCCC1)C(=O)N1CCN(C2=N[C@@H](C)[C@H](c3ccccc3)O2)C[C@H]1C(=O)NCc1ccc(CN)c(Cl)c1 [Example 179, (2S)-N-[4-(aminomethyl)-3-chlorobenzyl]-1-[N-(1-methylethyl)-6-piperidin-1-yl-D-norleucyl]-4-[(4S,5S)-4-methyl-5-phenyl-4,5-dihydro-1,3-oxazol-2-yl]piperazine-2-carboxamide] | 1.7
20 | C[C@@H]1N=C(N2CCN(C(=O)[C@@H](CC3CCN(C4CCCCC4)CC3)NC3CCCCC3)[C@H](C(=O)NCc3cccs3)C2)O[C@H]1c1ccccc1 [Example 183, (2S)-[N-cyclohexyl-3-(1-cyclohexylpiperidin-4-yl)-D-alanyl]-4-[(4S,5S)-4-methyl-5-phenyl-4,5-dihydro-1,3-oxazol-2-yl]-N-(thiophen-2-ylmethyl)piperazine-2-carboxamide] | 2.4
21 | CC(C)N[C@H](CCCCN1CCCCC1)C(=O)N1CCN(C2=NC(C)[C@H](c3cccc(C#N)c3)O2)C[C@H]1C(=O)NCc1cccs1 (stereo partly drawn) [Example 169, (2S)-4[5-(3-cyanophenyl)-4-methyl-4,5-dihydro-1,3-oxazol-2-yl]-1-[N-(1-methylethyl)-6-piperidin-1-yl-D-norleucyl]-N-(thiophen-2-ylmethyl)piperazine-2-carboxamide] | 12.5
22 | C[C@@H]1N=C(N2CCN(C(=O)[C@H](N)CCCCN3CCCCC3)[C@H](C(=O)NCc3cccc(Cl)c3)C2)O[C@H]1c1ccccc1 [Example 161, (2S)-N-(3-chlorobenzyl)-4-[(4S,5S)-4-methyl-5-phenyl-4,5-dihydro-1,3-oxazol-2-yl]-1-(6-piperidin-1-yl-D-norleucyl)piperazine-2-carboxamide] | 22
